In BindingDB's records for doi:10.1021/acs.jmedchem.8b01644 (University of Montpellier, 2019):
Positions of bridges follow the written chain, without caps; N, C: chain ends. Non-standard residues stand in square brackets, D forms with d. Residues, ends and D or L forms follow the SMILES beside them. Nle = CCCC[C@H](N)C(=O)O

Legend:
[1] = Antagonist activity at human SNAP-tagged GHSR expressed in HEK293T cells assessed as reduction in ghrelin-induced calcium production at 1 uM by measuring ghrelin EC50 after 15 mins by Fluo 4-AM dye-based fluorescence assay (Rvb = 0.41 +/- […])
[2] = Antagonist activity at SNAP-tagged human GHSR expressed in HEK293T cells assessed as reduction in ghrelin-induced inositol phosphate production at 1 uM by measuring ghrelin EC50 after 30 mins by HTRF assay (Rvb = 0.36 +/- 0.01 nM)
[3] = Antagonist activity at SNAP-tagged human GHSR expressed in HEK293T cells assessed as reduction in ghrelin-induced inositol phosphate production at 1 uM by measuring ghrelin EC50 after 30 mins by HTRF assay (Rvb = 0.40 +/- 0.05 nM)
[4] = Antagonist activity at human SNAP-tagged GHSR expressed in HEK293T cells assessed as reduction in ghrelin-induced calcium production at 1 uM by measuring ghrelin EC50 after 15 mins by Fluo 4-AM dye-based fluorescence assay (Rvb = 0.34 +/- 0.12 nM)

Row | EC50 [1] [nM] | EC50 [2] [nM] | EC50 [3] [nM] | EC50 [4] [nM] | Structure (SMILES)
1 | 28 | 17 | – | – | CC[C@H](C)[C@@H]1NC(=O)[C@@H]2CSSC[C@@H](C(=O)N[C@@H](CO)C(=O)N[C@@H](CC(C)C)C(=O)N[C@@H](CO)C(=O)N[C@H](C(=O)N[C@@H](C)C(=O)N[C@@H](CCC(N)=O)C(=O)N[C@@H](CCC(=O)O)C(=O)O)C(C)C)NC(=O)[C@H](CCCNC(=N)N)NC(=O)[C@H](CCCNC(=N)N)NC(=O)[C@H](CCCCN)NC(=O)[C@H](CCCNC(=N)N)NC(=O)[C@H](CSSC[C@H](NC(=O)[C@H](CO)NC(=O)[C@H](C)NC(=O)CNC(=O)[C@@H](NC(=O)[C@@H]3CCCN3C(=O)[C@H](CCCNC(=N)N)NC(=O)[C@H](CC(C)C)NC(=O)[C@H](CO)NC(=O)[C@@H](NC(=O)CNC(=O)[C@H](CCCNC(=N)N)NC(=O)[C@H](Cc3c[nH]c4ccccc34)NC(=O)[C@H](Cc3ccccc3)NC(=O)[C@@H]3CCCN3C(=O)[C@@H](NC(=O)[C@@H](N)CCSC)[C@@H](C)O)C(C)C)[C@@H](C)CC)C(=O)N[C@@H](CCCNC(=N)N)C(=O)N[C@@H](CC(=O)O)C(=O)N[C@@H](CC(=O)O)C(=O)N[C@@H](CO)C(=O)N[C@@H](CCC(=O)O)C(=O)N2)NC(=O)[C@H](CC(C)C)NC(=O)[C@H](CCCNC(=N)N)NC(=O)[C@H]([C@@H](C)O)NC1=O (H-MTPFWRGVSLRPIGASCRDDSECITRLCRKRRCSLSVAQE-OH; disulfide 17-28, 23-33)
2 | – | – | 2.5 | 18 | CCCC[C@H](N)C(=O)N[C@H](C(=O)N1CCC[C@H]1C(=O)N[C@@H](Cc1ccccc1)C(=O)N[C@@H](Cc1c[nH]c2ccccc12)C(=O)N[C@@H](CCCNC(=N)N)C(=O)NCC(=O)N[C@H](C(=O)N[C@@H](CO)C(=O)N[C@@H](CC(C)C)C(=O)N[C@@H](CCCNC(=N)N)C(=O)N1CCC[C@H]1C(=O)N[C@H](C(=O)NCC(=O)O)[C@@H](C)CC)C(C)C)[C@@H](C)O (H-[Nle]TPFWRGVSLRPIG-OH)
